For orientation: IC50 means the midpoint of a concentration-inhibition curve.

SMILES strings stand for the structures.

In one assay the target is human TACE (Homo sapiens (Human), UniProt P78536). To be noted: read-out: TACE potency IC50.
A further assay has as its target human MMP13 (Homo sapiens (Human), UniProt P45452). To be noted: read-out: hMMP-13 potency IC50.
In another assay the target is rnADAMTS-5 (1-564-6H) (Rattus norvegicus, UniProt Q6TY19). Conditions: read-out: Rat ADAMTS-5 potency IC50.
The target of a further assay is human ADAMTS-5 (Homo sapiens (Human), UniProt Q9UNA0). Conditions: read-out: hADAMTS-5 potency IC50.
Chain of human ADAMTS-5 (Q9UNA0 262-930): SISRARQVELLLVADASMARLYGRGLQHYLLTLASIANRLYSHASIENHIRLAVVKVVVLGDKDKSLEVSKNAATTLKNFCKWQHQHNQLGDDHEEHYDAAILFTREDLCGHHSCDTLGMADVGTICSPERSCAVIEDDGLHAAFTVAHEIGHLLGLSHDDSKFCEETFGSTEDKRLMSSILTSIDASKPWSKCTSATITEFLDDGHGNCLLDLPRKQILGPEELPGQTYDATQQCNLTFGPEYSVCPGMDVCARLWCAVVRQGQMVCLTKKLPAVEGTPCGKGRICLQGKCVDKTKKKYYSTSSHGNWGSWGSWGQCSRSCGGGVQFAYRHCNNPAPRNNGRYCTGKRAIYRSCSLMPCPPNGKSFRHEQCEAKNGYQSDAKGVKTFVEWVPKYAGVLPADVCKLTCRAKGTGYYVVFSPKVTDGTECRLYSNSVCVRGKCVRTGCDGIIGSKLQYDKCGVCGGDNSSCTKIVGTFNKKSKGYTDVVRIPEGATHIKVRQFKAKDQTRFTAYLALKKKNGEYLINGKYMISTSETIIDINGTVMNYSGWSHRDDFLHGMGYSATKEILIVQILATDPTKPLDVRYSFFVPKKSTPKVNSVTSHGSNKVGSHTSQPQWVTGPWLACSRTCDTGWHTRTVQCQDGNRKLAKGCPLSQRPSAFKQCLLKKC

Chain of human TACE (P78536 whole entry, looked up, change not shown): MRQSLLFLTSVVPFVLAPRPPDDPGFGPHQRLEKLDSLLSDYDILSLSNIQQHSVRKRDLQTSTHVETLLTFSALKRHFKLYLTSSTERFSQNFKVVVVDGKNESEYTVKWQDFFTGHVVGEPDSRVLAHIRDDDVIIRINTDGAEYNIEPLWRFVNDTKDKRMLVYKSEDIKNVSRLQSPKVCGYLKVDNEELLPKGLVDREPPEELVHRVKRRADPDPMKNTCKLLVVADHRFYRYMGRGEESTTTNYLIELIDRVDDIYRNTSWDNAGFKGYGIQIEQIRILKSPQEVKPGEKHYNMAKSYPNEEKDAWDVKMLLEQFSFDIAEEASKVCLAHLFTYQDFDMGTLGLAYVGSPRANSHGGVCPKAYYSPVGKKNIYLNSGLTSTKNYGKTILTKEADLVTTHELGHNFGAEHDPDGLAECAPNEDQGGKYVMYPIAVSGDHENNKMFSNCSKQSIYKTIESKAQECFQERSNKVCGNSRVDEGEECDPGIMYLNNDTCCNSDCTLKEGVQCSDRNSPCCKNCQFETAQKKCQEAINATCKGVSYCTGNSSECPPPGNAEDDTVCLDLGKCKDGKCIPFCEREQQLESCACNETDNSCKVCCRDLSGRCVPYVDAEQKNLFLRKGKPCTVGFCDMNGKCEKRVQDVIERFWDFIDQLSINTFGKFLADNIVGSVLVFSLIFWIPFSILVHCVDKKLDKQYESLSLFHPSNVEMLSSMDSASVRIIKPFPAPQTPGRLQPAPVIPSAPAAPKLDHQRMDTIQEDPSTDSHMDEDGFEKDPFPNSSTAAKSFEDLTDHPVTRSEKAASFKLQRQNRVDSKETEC
Procedure for human ADAMTS-5: Finally, the fluorescence is read on the Envision (Perkin Elmer) after an incubation of 90 min at 37° C.
Procedure for human MMP13: Human MMP13 is preactivated by incubated the enzyme in the same buffer complemented with 1 mM freshly prepared p-Aminophenylmercuric acetate (AMPA) for 1 hour at 37° C.

In the case of `C[C@H]1CN(C(=O)CCC2(C3CC3)NC(=O)NC2=O)CCN1c1ccc(F)c(F)c1` (stereo partly drawn) [compound 161, 5-cyclopropyl-5-[3-[(3S)-4-(3,4-difluorophenyl)-3-methyl-piperazin-1-yl]-3-oxo-propyl]imidazolidine-2,4-dione], the IC50 at human TACE is over 20000 nM; on human MMP13, over 20000 nM; on rnADAMTS-5 (1-564-6H) it was 37 nM; on human ADAMTS-5 it was 54 nM.
Turning to `C[C@H]1CN(C(=O)CCC2(C3CC3)NC(=O)NC2=O)CCN1c1ccc(Cl)c(F)c1` (stereo partly drawn) [compound 162, 5-[3-[(3S)-4-(4-chloro-3-fluoro-phenyl)-3-methyl-piperazin-1-yl]-3-oxo-propyl]-5-cyclopropyl-imidazolidine-2,4-dione], the IC50 is over 20000 nM at human TACE, over 4000 nM at human MMP13, 45 nM at rnADAMTS-5 (1-564-6H) and 39 nM at human ADAMTS-5.
The corresponding values for `C[C@H]1CN(C(=O)CCC2(C3CC3)NC(=O)NC2=O)CCN1c1ccc(F)c(Cl)c1` (stereo partly drawn) [compound 163, 5-[3-[(3S)-4-(3-chloro-4-fluoro-phenyl)-3-methyl-piperazin-1-yl]-3-oxo-propyl]-5-cyclopropyl-imidazolidine-2,4-dione] are over 20000 nM, over 20000 nM, 45 nM and 40 nM.
`C[C@H]1CN(C(=O)CCC2(C3CC3)NC(=O)NC2=O)CCN1c1ccc(Cl)c(Cl)c1` (stereo partly drawn) [compound 167, 5-cyclopropyl-5-[3-[(3S)-4-(3,4-dichlorophenyl)-3-methyl-piperazin-1-yl]-3-oxo-propyl]imidazolidine-2,4-dione]: the IC50 was over 4000 nM on human TACE, over 4000 nM at human MMP13, 10 nM on rnADAMTS-5 (1-564-6H) and 19 nM on human ADAMTS-5.
Consider `C[C@H]1CN(C(=O)CCC2(C)NC(=O)NC2=O)CCN1c1ccc(Cl)c(Cl)c1` (stereo partly drawn) [compound 168, 5-[3-[(3S)-4-(3,4-dichlorophenyl)-3-methyl-piperazin-1-yl]-3-oxo-propyl]-5-methyl-imidazolidine-2,4-dione], for which the IC50 on human TACE was over 20000 nM; at human MMP13 it was over 20000 nM; at rnADAMTS-5 (1-564-6H), 129 nM; at human ADAMTS-5, 76 nM.
On to `C[C@H]1CN(C(=O)CCC2(C3CC3)NC(=O)NC2=O)CCN1c1cc(F)cc(Cl)c1` (stereo partly drawn) [compound 169, 5-[3-[(3S)-4-(3-chloro-5-fluoro-phenyl)-3-methyl-piperazin-1-yl]-3-oxo-propyl]-5-cyclopropyl-imidazolidine-2,4-dione], for which the 50% inhibitory concentration (IC50) at human TACE is over 20000 nM; at human MMP13 it was over 20000 nM; at rnADAMTS-5 (1-564-6H) it was 27 nM; on human ADAMTS-5, 30 nM.
Turning to `CC(CC1(C2CC2)NC(=O)NC1=O)C(=O)N1CCN(c2cc(Cl)cc(Cl)c2)CC1` (centres unmarked) [compound 172, 5-cyclopropyl-5-[3-[4-(3,5-dichlorophenyl)piperazin-1-yl]-2-methyl-3-oxo-propyl]imidazolidine-2,4-dione], the IC50 turned out to be 311 nM on human TACE, 2740 nM on human MMP13, 11 nM on rnADAMTS-5 (1-564-6H) and 17 nM on human ADAMTS-5.
For the compound `Cc1ccc(F)cc1N1CCN(C(=O)C(C)CC2(C3CC3)NC(=O)NC2=O)CC1` (centres unmarked) [compound 174, 5-cyclopropyl-5-[3-[4-(5-fluoro-2-methyl-phenyl)piperazin-1-yl]-2-methyl-3-oxo-propyl]imidazolidine-2,4-dione], the IC50 at human TACE is 321 nM; at human MMP13, over 20000 nM; on rnADAMTS-5 (1-564-6H), 17 nM; at human ADAMTS-5, 21 nM.
The corresponding values for `Cc1ccc(F)cc1N1CCN(C(=O)C(C)CC2(C)NC(=O)NC2=O)CC1` (centres unmarked) [compound 175, 5-[3-[4-(5-fluoro-2-methyl-phenyl)piperazin-1-yl]-2-methyl-3-oxo-propyl]-5-methyl-imidazolidine-2,4-dione] are 251 nM, over 20000 nM, 22 nM and 25 nM.
On to `Cc1c(Cl)cccc1N1CCN(C(=O)C(C)CC2(C3CC3)NC(=O)NC2=O)CC1` (centres unmarked) [compound 176, 5-[3-[4-(3-chloro-2-methyl-phenyl)piperazin-1-yl]-2-methyl-3-oxo-propyl]-5-cyclopropyl-imidazolidine-2,4-dione], for which the IC50 at human TACE is 1230 nM; at human MMP13, over 20000 nM; on rnADAMTS-5 (1-564-6H), 7 nM; at human ADAMTS-5, 16 nM.
For the compound `Cc1c(Cl)cc(Cl)cc1N1CCN(C(=O)CCC2(C3CC3)NC(=O)NC2=O)C[C@@H]1C` (stereo partly drawn) [compound 177, 5-cyclopropyl-5-[3-[(3S)-4-(3,5-dichloro-2-methyl-phenyl)-3-methyl-piperazin-1-yl]-3-oxo-propyl]imidazolidine-2,4-dione], the IC50 is 1990 nM on human TACE, over 20000 nM at human MMP13, 40 nM at rnADAMTS-5 (1-564-6H) and 78 nM at human ADAMTS-5.
Take `NCC1(CCC(=O)N2CCN(c3cc(Cl)cc(Cl)c3)CC2)NC(=O)NC1=O` (centres unmarked) [compound 180, 5-(aminomethyl)-5-[3-[4-(3,5-dichlorophenyl)piperazin-1-yl]-3-oxo-propyl]imidazolidine-2,4-dione]: the IC50 on human TACE is over 4000 nM; on human MMP13, over 20000 nM; at rnADAMTS-5 (1-564-6H), 241 nM; at human ADAMTS-5 it was 177 nM.
`COCCNC(=O)CC1(CCC(=O)N2CCN(c3cc(Cl)cc(Cl)c3)CC2)NC(=O)NC1=O` (centres unmarked) [compound 187, 2-[4-[3-[4-(3,5-dichlorophenyl)piperazin-1-yl]-3-oxo-propyl]-2,5-dioxo-imidazolidin-4-yl]-N-(2-methoxyethyl)acetamide]: the IC50 on human TACE is over 20000 nM; at human MMP13, 2610 nM; on rnADAMTS-5 (1-564-6H) it was 396 nM; at human ADAMTS-5, 456 nM.
As for `CC(CC1(C2CC2)NC(=O)NC1=O)C(=O)N1CCN(c2cccc(F)c2)[C@@H](C)C1` (stereo partly drawn) [compound 190, 5-cyclopropyl-5-[3-[(3S)-4-(3-fluorophenyl)-3-methyl-piperazin-1-yl]-2-methyl-3-oxo-propyl]imidazolidine-2,4-dione], the IC50 at human TACE is over 20000 nM; at human MMP13 it was 3060 nM; on rnADAMTS-5 (1-564-6H), 15 nM; at human ADAMTS-5 it was 22 nM.
Consider `CC(CC1(C2CC2)NC(=O)NC1=O)C(=O)N1CCN(c2ccc(F)c(F)c2)[C@@H](C)C1` (stereo partly drawn) [compound 191, 5-cyclopropyl-5-[3-[(3S)-4-(3,4-difluorophenyl)-3-methyl-piperazin-1-yl]-2-methyl-3-oxo-propyl]imidazolidine-2,4-dione], for which the IC50 on human TACE was over 20000 nM; on human MMP13, 1880 nM; on rnADAMTS-5 (1-564-6H), 11 nM; at human ADAMTS-5, 20 nM.
Turning to `CC(CC1(C2CC2)NC(=O)NC1=O)C(=O)N1CCN(c2ccc(F)c(Cl)c2)[C@@H](C)C1` (stereo partly drawn) [compound 192, 5-[3-[(3S)-4-(3-chloro-4-fluoro-phenyl)-3-methyl-piperazin-1-yl]-2-methyl-3-oxo-propyl]-5-cyclopropyl-imidazolidine-2,4-dione], the IC50 is over 4000 nM on human TACE, 865 nM on human MMP13, 6 nM on rnADAMTS-5 (1-564-6H) and 11 nM at human ADAMTS-5.
Turning to `CC(CC1(C2CC2)NC(=O)NC1=O)C(=O)N1CCN(c2ccc(Cl)cc2)[C@@H](C)C1` (stereo partly drawn) [compound 193, 5-[3-[(3S)-4-(4-chlorophenyl)-3-methyl-piperazin-1-yl]-2-methyl-3-oxo-propyl]-5-cyclopropyl-imidazolidine-2,4-dione], the IC50 at human TACE was over 20000 nM; on human MMP13, 433 nM; on rnADAMTS-5 (1-564-6H) it was 7 nM; at human ADAMTS-5 it was 23 nM.
Turning to `CC(CC1(C2CC2)NC(=O)NC1=O)C(=O)N1CCN(c2cc(F)cc(Cl)c2)[C@@H](C)C1` (stereo partly drawn) [compound 194, 5-[3-[(3S)-4-(3-chloro-5-fluoro-phenyl)-3-methyl-piperazin-1-yl]-2-methyl-3-oxo-propyl]-5-cyclopropyl-imidazolidine-2,4-dione], the IC50 at human TACE was over 4000 nM; on human MMP13 it was 952 nM; on rnADAMTS-5 (1-564-6H), 5 nM; at human ADAMTS-5 it was 11 nM.
With `CC(CC1(C2CNC2)NC(=O)NC1=O)C(=O)N1CCN(c2cc(Cl)cc(Cl)c2)CC1` (centres unmarked) [compound 196], the IC50 on human TACE is over 3930 nM; at human MMP13, over 20000 nM; at rnADAMTS-5 (1-564-6H), 104 nM; at human ADAMTS-5, 102 nM.
As to `CSCCC1(CC(C)C(=O)N2CCN(c3cc(Cl)cc(Cl)c3)CC2)NC(=O)NC1=O` (centres unmarked) [compound 197, 5-[3-[4-(3,5-dichlorophenyl)piperazin-1-yl]-2-methyl-3-oxo-propyl]-5-(2-methylsulfanylethyl)imidazolidine-2,4-dione], the IC50 on human TACE is 134 nM; on human MMP13 it was over 4000 nM; at rnADAMTS-5 (1-564-6H), 21 nM; at human ADAMTS-5, 26 nM.
Consider `CC(CC1(CC2CCN(C(=O)OC(C)(C)C)CC2)NC(=O)NC1=O)C(=O)N1CCN(c2cc(Cl)cc(Cl)c2)CC1` (centres unmarked) [compound 198, tert-butyl 4-[[4-[3-[4-(3,5-dichlorophenyl)piperazin-1-yl]-2-methyl-3-oxo-propyl]-2,5-dioxo-imidazolidin-4-yl]methyl]piperidine-1-carboxylate], for which the IC50 at human TACE was 817 nM; at human MMP13 it was 1940 nM; at rnADAMTS-5 (1-564-6H), 38 nM; at human ADAMTS-5, 52 nM.
The corresponding values for `CC(CC1(C2CCOCC2)NC(=O)NC1=O)C(=O)N1CCN(c2cc(Cl)cc(Cl)c2)CC1` (centres unmarked) [compound 199, 5-[3-[4-(3,5-dichlorophenyl)piperazin-1-yl]-2-methyl-3-oxo-propyl]-5-tetrahydropyran-4-yl-imidazolidine-2,4-dione] are 1050 nM, over 20000 nM, 48 nM and 62 nM.
On to `COC(CC1(C2CC2)NC(=O)NC1=O)C(=O)N1CCN(c2cc(Cl)cc(Cl)c2)CC1` (centres unmarked) [compound 206, 5-cyclopropyl-5-[3-[4-(3,5-dichlorophenyl)piperazin-1-yl]-2-methoxy-3-oxo-propyl]imidazolidine-2,4-dione], for which the IC50 is over 4000 nM on human TACE, over 4000 nM on human MMP13, 40 nM at rnADAMTS-5 (1-564-6H) and 60 nM at human ADAMTS-5.

The values are drawn from patent US9926281B2 (priority 2014, dated 2018).
